Assay type in all cases: cell-based
Holding throughout (conditions): mda-mb-231, 24 h

The subject of data set [1] is MDA-MB-231. The data set can be described thus: Toxicity in human MDA-MB-231 cells assessed as reduction in cell viability at <1 uM incubated for 24 hrs by MTS assay.
Data set [2] deals with MDA-MB-231. Description: Toxicity in human MDA-MB-231 cells assessed as reduction in cell viability at >1 uM incubated for 24 hrs by MTS assay. For orientation: Formazan colour is commonly taken as a measure of viable cells.
In data set [3] the test system is MDA-MB-231. Description: Toxicity in human MDA-MB-231 cells assessed as reduction in cell viability at 10 uM incubated for 24 hrs by MTS assay.

For `CN1\C(=C/C=C/C=C/C2N(CCCCCC(=O)NCCCCCC(=O)N3Cc4ccccc4C[C@H]3C(=O)NCC(=O)N3C4CCCCC4C[C@H]3C(=O)NC(CCCNC(=N)N)P(=O)(Oc3ccccc3)Oc3ccccc3)c3ccccc3C2(C)C)C(C)(C)c2ccccc21` (stereo partly drawn), the Activity entry in data set [1] was “Non-Toxic”; in data set [2], “Toxic”.

As to `COC(=O)CCC(=O)N1Cc2ccccc2C[C@H]1C(=O)NCC(=O)N1C2CCCCC2C[C@H]1C(=O)NC(CCCNC(=N)N)P(=O)(Oc1ccccc1)Oc1ccccc1` (stereo partly drawn), the Activity result in data set [3] is listed as “Non-Toxic”.

The values are drawn from ChEMBL document CHEMBL4342470, “Detection of Active Granzyme A in NK92 Cells with Fluorescent Activity-Based Probe” (J Med Chem, 2020).
